Key:
[1] = biological target: T1, aldehyde dehydrogenase 2 (ALDH-2) (Homo sapiens, UniProt P05091); test: fluorimetric dehydrogenase activity assay; format: biochemical
T1 sequence (P05091 18-517): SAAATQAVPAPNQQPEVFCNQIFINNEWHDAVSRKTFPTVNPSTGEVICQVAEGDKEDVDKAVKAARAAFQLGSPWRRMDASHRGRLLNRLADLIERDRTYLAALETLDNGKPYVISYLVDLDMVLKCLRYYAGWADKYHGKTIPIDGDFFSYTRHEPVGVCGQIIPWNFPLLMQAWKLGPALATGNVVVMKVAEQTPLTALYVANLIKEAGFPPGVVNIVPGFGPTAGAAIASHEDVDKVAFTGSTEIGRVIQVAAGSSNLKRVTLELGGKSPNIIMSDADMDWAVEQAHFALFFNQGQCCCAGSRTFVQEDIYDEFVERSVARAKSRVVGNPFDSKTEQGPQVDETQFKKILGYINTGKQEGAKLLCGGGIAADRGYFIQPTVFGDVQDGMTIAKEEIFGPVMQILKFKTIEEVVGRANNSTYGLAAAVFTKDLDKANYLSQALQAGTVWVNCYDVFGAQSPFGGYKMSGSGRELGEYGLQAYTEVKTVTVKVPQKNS

ALDH-1 = biological target: T2, ALDH-1 (Homo sapiens, UniProt P00352); test: fluorimetric dehydrogenase activity assay; format: biochemical
T2 sequence (P00352 2-501): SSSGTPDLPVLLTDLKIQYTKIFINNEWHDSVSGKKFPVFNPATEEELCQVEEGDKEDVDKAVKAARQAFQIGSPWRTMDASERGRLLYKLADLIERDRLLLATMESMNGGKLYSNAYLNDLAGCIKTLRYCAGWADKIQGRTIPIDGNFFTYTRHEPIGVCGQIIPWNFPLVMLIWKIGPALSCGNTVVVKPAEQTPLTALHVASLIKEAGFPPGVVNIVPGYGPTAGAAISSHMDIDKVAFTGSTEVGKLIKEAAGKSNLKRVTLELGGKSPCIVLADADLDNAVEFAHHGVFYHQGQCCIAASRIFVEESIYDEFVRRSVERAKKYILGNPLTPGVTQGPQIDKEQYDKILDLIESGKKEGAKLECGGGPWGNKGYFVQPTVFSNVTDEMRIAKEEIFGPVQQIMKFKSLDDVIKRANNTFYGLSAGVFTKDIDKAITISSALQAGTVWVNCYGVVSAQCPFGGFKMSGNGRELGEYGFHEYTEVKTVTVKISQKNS

IC50 [1]: ~29 nM
IC50 (ALDH-1): 1300 nM
Structure (SMILES): CS(=O)(=O)Nc1ccc(-c2coc3cc(OCc4cccc(C(=O)O)c4)ccc3c2=O)cc1 [CVT-10216, 3-((3-(4-(methylsulfonamido)phenyl)-4-oxo-4H-chromen-7-yloxy)methyl)benzoic acid]

From PMC8212937 (Alcoholism, clinical and experimental research, 2009)
